# In US20140017673A1, “METHOD FOR ENUMERATING EUKARYOTIC CELL MICRONUCLEI WITH AN EMPHASIS ON SIMULTANEOUSLY ACQUIRING CYTOTOXICITY AND MODE OF ACTION INFORMATION” (priority 2012, published 2014):
# Where a name gives a salt, the structure may show the parent alone. Read-outs that look alike come from different tables or passages of the source.
# Columns and labels:
# TK6 cells [1] = settings: for Avg. % EMA+ / Avg. % M / Avg. % RS / Avg. M as % G2/M / Avg. % MN: human
# TK6 cells [2] = test: Polyploidy as an aneugenic signature (flow cytometry, 96-well plate); settings: 0.025 μg paclitaxel/ml, approximately 24 hrs
# TK6 cells [3] = test: Treatment with demecolcine and assessment of anti-H3-P performance (metaphase events by flow cytometry); format: cell-based, human; settings: 0.05 ng/ml, 5 hours
# Protocol: TK6 cells were treated with 0 or 0.05 ng demecolcine/ml in T25 tissue culture flasks. At the start of treatment, cells were at 5×10^5/ml in a volume of 20 ml per flask. Flasks were incubated at 37° C., 5% CO2, and in a humid atmosphere. After 5 hours, flasks were removed and 1 ml aliquots were placed in to 15 ml centrifuge tubes. Cells were collected via centrifugation, and supernatants aspirated such that approximately 25 μl of supernatant remained per tube. Cells were gently resuspended with tapping. 300 μl “Lysis Solution 1” was added slowly to each tube (approximately 5 seconds per sample). […]
# Samples were gently pipetted to resuspend the particles. […] SYTOX®-associated fluorescence emission was collected in the FITC channel, EMA-associated fluorescence was collected in the PerCP-Cy5 channel, and anti-H3-P-Alexa 647 associated fluorescence was collected in the APC channel. Events were triggered on FITC fluorescence. The flow cytometry gating strategy that was developed for this scoring application required events to meet each of several separate criteria before they were scored as nuclei, MN, chromatin debris, or metaphase chromosomes. […]
# In this experiment, TK6 cells were treated with 0 or 0.05 ng/ml demecolcine, a metaphase blocking agent. […] However, the anti-H3-P associated fluorescence signal is able to differentiate between G2 and metaphase chromosomes. […]
compound,measurement,setting,value
COc1cc([C@@H]2c3cc4c(cc3[C@@H](O[C@@H]3O[C@@H]5CO[C@@H](C)O[C@H]5[C@H](O)[C@H]3O)[C@H]3COC(=O)[C@H]23)OCO4)cc(OC)c1O [Etoposide],Avg. % EMA+,TK6 cells [1]; 0.005 μg/ml,2.3%
same,Avg. % M,TK6 cells [1]; 0.005 μg/ml,1.6%
same,Avg. % RS,TK6 cells [1]; 0.005 μg/ml,83.3%
same,Avg. M as % G2/M,TK6 cells [1]; 0.005 μg/ml,5.7%
same,Avg. % EMA+,TK6 cells [1]; 0.01 μg/ml,3.7%
same,Avg. % M,TK6 cells [1]; 0.01 μg/ml,1.4%
same,Avg. % RS,TK6 cells [1]; 0.01 μg/ml,69.6%
same,Avg. M as % G2/M,TK6 cells [1]; 0.01 μg/ml,5.2%
same,Avg. % EMA+,TK6 cells [1]; 0.02 μg/ml,5.3%
same,Avg. % M,TK6 cells [1]; 0.02 μg/ml,1.2%
same,Avg. % RS,TK6 cells [1]; 0.02 μg/ml,52.6%
same,Avg. M as % G2/M,TK6 cells [1]; 0.02 μg/ml,3.8%
COC(=O)Nc1nc2ccccc2[nH]1 [Carbendazim],Avg. % EMA+,TK6 cells [1]; 0.125 μg/ml,2.3%
same,Avg. % M,TK6 cells [1]; 0.125 μg/ml,1.6%
same,Avg. % MN,TK6 cells [1]; 0.125 μg/ml,0.8%
same,Avg. % RS,TK6 cells [1]; 0.125 μg/ml,96.9%
same,Avg. M as % G2/M,TK6 cells [1]; 0.125 μg/ml,6.1%
same,Avg. % EMA+,TK6 cells [1]; 0.5 μg/ml,6.4%
same,Avg. % M,TK6 cells [1]; 0.5 μg/ml,1.6%
same,Avg. % MN,TK6 cells [1]; 0.5 μg/ml,3.8%
same,Avg. % RS,TK6 cells [1]; 0.5 μg/ml,71.2%
same,Avg. M as % G2/M,TK6 cells [1]; 0.5 μg/ml,10.3%
same,Avg. % EMA+,TK6 cells [1]; 1 μg/ml,10.0%
same,Avg. % M,TK6 cells [1]; 1 μg/ml,5.6%
same,Avg. % MN,TK6 cells [1]; 1 μg/ml,14.7%
same,Avg. % RS,TK6 cells [1]; 1 μg/ml,49.7%
same,Avg. M as % G2/M,TK6 cells [1]; 1 μg/ml,24.9%
same,Avg. % EMA+,TK6 cells [1]; 2 μg/ml,12.0%
same,Avg. % M,TK6 cells [1]; 2 μg/ml,5.4%
same,Avg. % MN,TK6 cells [1]; 2 μg/ml,22.3%
same,Avg. % RS,TK6 cells [1]; 2 μg/ml,43.3%
same,Avg. M as % G2/M,TK6 cells [1]; 2 μg/ml,18.5%
CC[C@]1(O)C[C@@H]2CN(CCc3c([nH]c4ccccc34)[C@@](C(=O)OC)(c3cc4c(cc3OC)N(C)[C@H]3[C@@](O)(C(=O)OC)[C@H](OC(C)=O)[C@]5(CC)C=CCN6CC[C@]43[C@@H]65)C2)C1 [Vinblastine sulfate],Avg. % EMA+,TK6 cells [1]; 0.1 μg/ml,2.0%
same,Avg. % M,TK6 cells [1]; 0.1 μg/ml,1.8%
same,Avg. % MN,TK6 cells [1]; 0.1 μg/ml,0.7%
same,Avg. % RS,TK6 cells [1]; 0.1 μg/ml,88.0%
same,Avg. M as % G2/M,TK6 cells [1]; 0.1 μg/ml,8.6%
same,Avg. % EMA+,TK6 cells [1]; 0.2 μg/ml,2.7%
same,Avg. % M,TK6 cells [1]; 0.2 μg/ml,1.5%
same,Avg. % MN,TK6 cells [1]; 0.2 μg/ml,1.6%
same,Avg. % RS,TK6 cells [1]; 0.2 μg/ml,79.6%
same,Avg. M as % G2/M,TK6 cells [1]; 0.2 μg/ml,9.0%
same,Avg. % EMA+,TK6 cells [1]; 0.4 μg/ml,4.0%
same,Avg. % M,TK6 cells [1]; 0.4 μg/ml,2.7%
same,Avg. % MN,TK6 cells [1]; 0.4 μg/ml,3.3%
same,Avg. % RS,TK6 cells [1]; 0.4 μg/ml,70.6%
same,Avg. M as % G2/M,TK6 cells [1]; 0.4 μg/ml,17.1%
same,Avg. % EMA+,TK6 cells [1]; 0.8 μg/ml,5.8%
same,Avg. % M,TK6 cells [1]; 0.8 μg/ml,7.2%
same,Avg. % MN,TK6 cells [1]; 0.8 μg/ml,7.5%
same,Avg. % RS,TK6 cells [1]; 0.8 μg/ml,48.0%
same,Avg. M as % G2/M,TK6 cells [1]; 0.8 μg/ml,32.0%
same,Avg. % EMA+,TK6 cells [1]; 1.6 μg/ml,8.8%
same,Avg. % M,TK6 cells [1]; 1.6 μg/ml,4.4%
same,Avg. % MN,TK6 cells [1]; 1.6 μg/ml,12.6%
same,Avg. % RS,TK6 cells [1]; 1.6 μg/ml,37.6%
same,Avg. M as % G2/M,TK6 cells [1]; 1.6 μg/ml,14.1%
COc1cc2c(c(OC)c1OC)-c1ccc(OC)c(=O)cc1[C@@H](NC(C)=O)CC2 [Colchicine],"cytotoxicity (dose-dependent reductions to RS), FIG. 3",TK6 cells [1],cytotoxic
same,"genotoxicity (increased MN observed), FIG. 3 dose-response",TK6 cells [1],genotoxic
CC(=O)O[C@H]1C(=O)[C@@]2(C)[C@H]([C@H](OC(=O)c3ccccc3)[C@]3(O)C[C@H](OC(=O)[C@H](O)[C@@H](NC(=O)c4ccccc4)c4ccccc4)C(C)=C1C3(C)C)[C@]1(OC(C)=O)CO[C@@H]1C[C@@H]2O [Paclitaxel],"induction of polyploid nuclei (8n), FIG. 6",TK6 cells [2],robust induction
same,Avg. % EMA+,TK6 cells [1]; 1.6 μg/ml,3.7%
same,Avg. % M,TK6 cells [1]; 1.6 μg/ml,1.7%
same,Avg. % MN,TK6 cells [1]; 1.6 μg/ml,1.5%
same,Avg. M as % G2/M,TK6 cells [1]; 1.6 μg/ml,7.1%
same,Avg. % EMA+,TK6 cells [1]; 2.4 μg/ml,7.3%
same,Avg. % M,TK6 cells [1]; 2.4 μg/ml,2.2%
same,Avg. % MN,TK6 cells [1]; 2.4 μg/ml,4.4%
same,Avg. M as % G2/M,TK6 cells [1]; 2.4 μg/ml,9.7%
same,Avg. % EMA+,TK6 cells [1]; 3.3 μg/ml,10.0%
same,Avg. % M,TK6 cells [1]; 3.3 μg/ml,3.4%
same,Avg. % MN,TK6 cells [1]; 3.3 μg/ml,9.2%
same,Avg. M as % G2/M,TK6 cells [1]; 3.3 μg/ml,12.2%
same,Avg. % EMA+,TK6 cells [1]; 4.9 μg/ml,12.3%
same,Avg. % M,TK6 cells [1]; 4.9 μg/ml,4.4%
same,Avg. % MN,TK6 cells [1]; 4.9 μg/ml,12.5%
same,Avg. M as % G2/M,TK6 cells [1]; 4.9 μg/ml,11.3%
same,Avg. % EMA+,TK6 cells [1]; 6.5 μg/ml,13.2%
same,Avg. % M,TK6 cells [1]; 6.5 μg/ml,4.6%
same,Avg. % MN,TK6 cells [1]; 6.5 μg/ml,15.8%
same,Avg. M as % G2/M,TK6 cells [1]; 6.5 μg/ml,10.2%
"CN[C@H]1CCc2cc(OC)c(OC)c(OC)c2-c2ccc(OC)c(=O)cc21 [demecolcine, Demecolcine]","frequency of 4n anti-H3-P-positive events, FIG. 2",TK6 cells [3],greatly increased
"NC(=O)NO [HU, Hydroxyurea]",Avg. % EMA+,TK6 cells [1]; 0.5 μg/ml,2.4%
same,Avg. % M,TK6 cells [1]; 0.5 μg/ml,1.6%
same,Avg. % MN,TK6 cells [1]; 0.5 μg/ml,0.4%
same,Avg. % RS,TK6 cells [1]; 0.5 μg/ml,100.9%
same,Avg. M as % G2/M,TK6 cells [1]; 0.5 μg/ml,5.4%
same,Avg. % EMA+,TK6 cells [1]; 0.9 μg/ml,2.3%
same,Avg. % M,TK6 cells [1]; 0.9 μg/ml,1.6%
same,Avg. % MN,TK6 cells [1]; 0.9 μg/ml,0.5%
same,Avg. % RS,TK6 cells [1]; 0.9 μg/ml,97.1%
same,Avg. M as % G2/M,TK6 cells [1]; 0.9 μg/ml,5.9%
same,Avg. % EMA+,TK6 cells [1]; 3.8 μg/ml,5.8%
same,Avg. % M,TK6 cells [1]; 3.8 μg/ml,1.7%
same,Avg. % MN,TK6 cells [1]; 3.8 μg/ml,0.9%
same,Avg. % RS,TK6 cells [1]; 3.8 μg/ml,65.7%
same,Avg. M as % G2/M,TK6 cells [1]; 3.8 μg/ml,4.7%
same,Avg. % EMA+,TK6 cells [1]; 7.5 μg/ml,13.7%
same,Avg. % M,TK6 cells [1]; 7.5 μg/ml,1.0%
same,Avg. % MN,TK6 cells [1]; 7.5 μg/ml,1.9%
same,Avg. % RS,TK6 cells [1]; 7.5 μg/ml,44.3%
same,Avg. M as % G2/M,TK6 cells [1]; 7.5 μg/ml,3.9%
CC[C@]1(O)C[C@H]2CN(CCc3c([nH]c4ccccc34)[C@@](C(=O)OC)(c3cc4c(cc3OC)N(C=O)[C@H]3[C@@](O)(C(=O)OC)[C@H](OC(C)=O)[C@]5(CC)C=CCN6CC[C@]43[C@@H]65)C2)C1 [Vincristine sulfate],Avg. % EMA+,TK6 cells [1]; 0.125 μg/ml,3.3%
same,Avg. % M,TK6 cells [1]; 0.125 μg/ml,1.9%
same,Avg. % MN,TK6 cells [1]; 0.125 μg/ml,0.6%
same,Avg. % RS,TK6 cells [1]; 0.125 μg/ml,91.9%
same,Avg. M as % G2/M,TK6 cells [1]; 0.125 μg/ml,7.1%
same,Avg. % EMA+,TK6 cells [1]; 0.5 μg/ml,5.1%
same,Avg. % M,TK6 cells [1]; 0.5 μg/ml,2.1%
same,Avg. % MN,TK6 cells [1]; 0.5 μg/ml,2.7%
same,Avg. % RS,TK6 cells [1]; 0.5 μg/ml,72.1%
same,Avg. M as % G2/M,TK6 cells [1]; 0.5 μg/ml,8.4%
same,Avg. % EMA+,TK6 cells [1]; 1 μg/ml,8.2%
same,Avg. % M,TK6 cells [1]; 1 μg/ml,3.4%
same,Avg. % MN,TK6 cells [1]; 1 μg/ml,7.9%
same,Avg. % RS,TK6 cells [1]; 1 μg/ml,53.1%
same,Avg. M as % G2/M,TK6 cells [1]; 1 μg/ml,13.5%
COC1=CC(=O)C[C@@H](C)[C@]12Oc1c(Cl)c(OC)cc(OC)c1C2=O [Griseofulvin],Avg. % EMA+,TK6 cells [1]; 0.375 μg/ml,3.0%
same,Avg. % M,TK6 cells [1]; 0.375 μg/ml,1.9%
same,Avg. % RS,TK6 cells [1]; 0.375 μg/ml,96.6%
same,Avg. M as % G2/M,TK6 cells [1]; 0.375 μg/ml,6.0%
same,Avg. % EMA+,TK6 cells [1]; 0.75 μg/ml,2.6%
same,Avg. % M,TK6 cells [1]; 0.75 μg/ml,1.8%
same,Avg. % RS,TK6 cells [1]; 0.75 μg/ml,99.5%
same,Avg. M as % G2/M,TK6 cells [1]; 0.75 μg/ml,5.8%
same,Avg. % EMA+,TK6 cells [1]; 3 μg/ml,8.2%
same,Avg. % M,TK6 cells [1]; 3 μg/ml,3.0%
same,Avg. % RS,TK6 cells [1]; 3 μg/ml,64.9%
same,Avg. M as % G2/M,TK6 cells [1]; 3 μg/ml,19.4%
same,Avg. % EMA+,TK6 cells [1]; 6 μg/ml,13.5%
same,Avg. % M,TK6 cells [1]; 6 μg/ml,5.8%
same,Avg. % RS,TK6 cells [1]; 6 μg/ml,46.6%
same,Avg. M as % G2/M,TK6 cells [1]; 6 μg/ml,26.4%
